# Where two headings read alike, the source gives them in different places.
# Key:
# [1] = tested on: VCaP cells; test: Cellular growth inhibition assay for VCaP cells (CellTiter-Glo, 72 hours); assay type: cell-based, human
# How it was run: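 Luminescent viability signal after 72 h of compound exposure gave GI50 values by four-parameter nonlinear regression. Compounds were added in 0.5% DMSO to cells plated 24 h earlier at 5000/well in DMEM containing 10% FBS.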
# [2] = tested on: T-Rex 293 cell line SC3 cells lacking increased expression of androgen receptor protein; test: Cellular growth inhibition assay, T-Rex 293 SC3 cells without doxycycline (CellTiter-Glo, 72 hours); assay type: cell-based; details: T-Rex 293 cell line SC3 cells not exposed to doxycycline (lacking increased androgen receptor expression)
# How it was run: (§1)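 Growth inhibition is measured in an inducible AR-expressing T-Rex 293 clone, SC3, cultured with or without 10 ng/mL doxycycline in hormone-depleted medium. Test compounds are applied for 72 hours. GI50 values derive from CellTiter-Glo 2.0 signal fitted by four-parameter regression.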
# [3] = tested on: T-Rex 293 cell line SC3 cells having increased expression of androgen receptor protein due to exposure to doxycycline; test: Cellular growth inhibition assay, T-Rex 293 SC3 cells with doxycycline (CellTiter-Glo, 72 hours); assay type: cell-based; details: T-Rex 293 SC3 cells with increased androgen receptor expression due to doxycycline (10 ng/mL)
# How it was run: as §1
Structure (SMILES),GI50 [1] [nM],GI50 [2] [nM],GI50 [3] [nM],"GI50 ([1]; Homo sapiens, VCaP, 72 h) [nM]",GI50 ([3]; 72 h) [nM],GI50 ([2]; 72 h) [nM]
"CC[C@@H]1N=C(c2ccc(C3CCC4(CC3)CCN(c3ccc(C(=O)N[C@H]5CC[C@H](Oc6ccc(C#N)c(Cl)c6)CC5)nn3)C4)cc2)c2c(sc(C)c2C)-n2c(C)nnc21 (single isomer, unassigned) [I-633]",1500 to 3000,< 500,< 500,–,–,–
Cc1sc2c(c1C)C(c1ccc(OC3CCC4(CCN(c5ccc(C(=O)N[C@H]6CC[C@H](Oc7ccc(C#N)c(Cl)c7)CC6)nn5)C4)C3)cc1)=N[C@@H](C)c1nnc(C)n1-2 (stereo partly drawn) [I-702],< 500,500 to 1500,< 500,–,–,–
Cc1sc2c(c1C)C(c1ccc(C3CCC(CC4CCN(c5ccc(C(=O)N[C@H]6CC[C@H](Oc7ccc(C#N)c(Cl)c7)CC6)nn5)CC4)CC3)cc1)=NC1(CC1)c1nnc(C)n1-2 (stereo partly drawn) [I-756],–,> 3000,–,< 500,< 500,–
COCC[C@@H]1N=C(c2ccc(OC3CC4(CCCN(c5ccc(C(=O)N[C@H]6CC[C@H](Oc7ccc(C#N)c(Cl)c7)CC6)nn5)C4)C3)cc2)c2c(sc(C)c2C)-n2c(C)nnc21 (stereo partly drawn) [I-663],< 500,< 500,< 500,–,–,–
Cc1sc2c(c1C)C(c1ccccc1CC1CC3(CCCN(c4ccc(C(=O)N[C@H]5CC[C@H](Oc6ccc(C#N)c(Cl)c6)CC5)nn4)C3)C1)=N[C@@H](C)c1nnc(C)n1-2 (stereo partly drawn) [I-754],–,–,–,> 3000,> 3000,> 3000
CCNC(=O)C[C@@H]1N=C(c2ccc(N(C)C3CC(OC4CCN(c5ncc(C(=O)N[C@H]6CC[C@H](Oc7ccc(C#N)c(Cl)c7)CC6)cn5)CC4)C3)cc2)c2c(sc(C)c2C)-n2c(C)nnc21 (stereo partly drawn) [I-69],–,–,–,< 500,< 500,500 to 1500
C#Cc1ccc(O[C@H]2CC[C@H](NC(=O)c3ccc(N4CCC(C5CN(c6ccc(C7=NC8(CC8)c8nnc(C)n8-c8sc(C)c(C)c87)cc6)C5)CC4)nn3)CC2)cc1Cl [I-450],–,–,–,< 500,< 500,> 3000
CCNC(=O)C[C@@H]1N=C(c2cccc(OCCOCCOCCOC3CCN(c4ncc(C(=O)N[C@H]5CC[C@H](Oc6ccc(C#N)c(Cl)c6)CC5)cn4)CC3)c2)c2c(sc(C)c2C)-n2c(C)nnc21 [I-11],–,–,–,500 to 1500,< 500,> 3000
Cc1sc2c(c1C)C(c1ccc(C3CCC4(CCCN(c5ccc(C(=O)N[C@H]6CC[C@H](Oc7ccc(C#N)c(Cl)c7)CC6)nn5)C4)CC3)cc1)=NC(C(F)(F)F)c1nnc(C)n1-2 (stereo partly drawn) [I-695],> 3000,> 3000,> 3000,–,–,–
Cc1sc2c(c1C)C(c1ccc(OC3CCC4(C3)CN(c3ccc(C(=O)N[C@H]5CC[C@H](Oc6ccc(C#N)c(Cl)c6)CC5)nn3)CCO4)cc1)=N[C@@H](C)c1nnc(C)n1-2 (stereo partly drawn) [I-541],> 3000,< 500,< 500,–,–,–
Cc1sc2c(c1C)C(c1ccc(N3C[C@@H]4CN(c5ccc(C(=O)N[C@H]6CC[C@H](Oc7ccc(C#N)c(Cl)c7)CC6)nn5)C[C@H]4C3)cc1)=N[C@@H](C)c1nnc(C)n1-2 [I-706],< 500,< 500,< 500,–,–,–
Cc1sc2c(c1C)C(c1ccc(N3CCN(C4CCN(c5ncc(C(=O)N[C@H]6CC[C@H](Oc7ccc(C#N)c(Cl)c7)CC6)cn5)CC4)CC3)cc1)=NC(Cc1ncco1)c1nnc(C)n1-2 (stereo partly drawn) [I-798],–,–,–,< 500,< 500,< 500
Cc1sc2c(c1C)C(c1cccc(CC3CCC4(CC3)CCN(c3ccc(C(=O)N[C@H]5CC[C@H](Oc6ccc(C#N)c(Cl)c6)CC5)nn3)C4)c1)=N[C@@H](C)c1nnc(C)n1-2 (stereo partly drawn) [I-714],< 500,< 500,< 500,–,–,–
CCNC(=O)C[C@@H]1N=C(c2ccc(OCCCOC3CCN(c4ccc(C(=O)N[C@H]5CC[C@H](Oc6ccc(C#N)c(Cl)c6)CC5)nn4)CC3)cc2)c2c(sc(C)c2C)-n2c(C)nnc21 [I-14],–,–,–,< 500,< 500,< 500
Cc1sc2c(c1C)C(c1ccc(C3CCC4(CCCN(c5ccc(C(=O)N[C@H]6CC[C@H](Oc7ccc(C#N)c(Cl)c7)CC6)nn5)C4)CC3)cc1)=N[C@@H](C)c1nnc(C)n1-2 (stereo partly drawn) [I-673],–,–,–,< 500,< 500,> 3000
Cc1sc2c(c1C)C(c1ccc(OC3CC4(C3)CC3(CCN(c5ccc(C(=O)N[C@H]6CC[C@H](Oc7ccc(C#N)c(Cl)c7)CC6)nn5)CC3)C4)cc1)=NC1(CC1)c1nnc(C)n1-2 [I-452],–,–,–,< 500,< 500,> 3000
Cc1sc2c(c1C)C(c1ccc(OC3CC(CC4CCN(c5ccc(C(=O)N[C@H]6CC[C@H](Oc7ccc(C#N)c(Cl)c7)CC6)nn5)CC4)C3)cc1)=NC1(CC1)c1nnc(C)n1-2 (stereo partly drawn) [I-528],–,–,–,< 500,< 500,> 3000
Cc1sc2c(c1C)C(c1ccc(N3CC(C4CCN(c5ccc(C(=O)N[C@H]6CC[C@H](Oc7ccc(C#N)c(Cl)c7)CC6)nn5)C4)C3)cc1)=N[C@@H](C)c1nnc(C)n1-2 (stereo partly drawn) [I-556],< 500,< 500,< 500,–,–,–

Structure (SMILES),GI50 [1] [nM],GI50 [2] [nM],GI50 [3] [nM],"GI50 ([1]; Homo sapiens, VCaP, 72 h) [nM]",GI50 ([3]; 72 h) [nM],GI50 ([2]; 72 h) [nM]
CC[C@@H]1N=C(c2ccc(C3CCC4(CCCN(c5ccc(C(=O)N[C@H]6CC[C@H](Oc7ccc(C#N)c(Cl)c7)CC6)nn5)C4)CC3)cc2)c2c(sc(C)c2C)-n2c(C)nnc21 (stereo partly drawn) [I-653],< 500,> 3000,< 500,–,–,–
Cc1sc2c(c1C)C(c1ccc(NCC3CC4(C3)CN(c3ncc(C(=O)N[C@H]5CC[C@H](Oc6ccc(C#N)c(Cl)c6)CC5)cn3)C4)cc1)=NC(Cc1ncco1)c1nnc(C)n1-2 (stereo partly drawn) [I-808],–,–,–,500 to 1500,< 500,> 3000
COCC[C@@H]1N=C(c2ccc(C#CC3CC4(C3)CN(c3ccc(C(=O)N[C@H]5CC[C@H](Oc6ccc(C#N)c(Cl)c6)CC5)nn3)C4)cc2)c2c(sc(C)c2C)-n2c(C)nnc21 [I-572],–,–,–,< 500,< 500,< 500
Cc1sc2c(c1C)C(c1ccc(C3CCC4(CCN(c5ccc(C(=O)N[C@H]6CC[C@H](Oc7ccc(C#N)c(Cl)c7)CC6)nn5)CC4)C3)nc1)=NC1(CC1)c1nnc(C)n1-2 (stereo partly drawn) [I-739],< 500,500 to 1500,< 500,–,–,–
Cc1sc2c(c1C)C(c1ccc(C3CCC(CC4CCN(c5ccc(C(=O)N[C@H]6CC[C@H](Oc7ccc(C#N)c(Cl)c7)CC6)nn5)CC4)CC3)cc1)=N[C@@H](C)c1nnc(C)n1-2 (stereo partly drawn) [I-765],< 500,> 3000,< 500,–,–,–
Cc1sc2c(c1C)C(c1cccc(CC3CC4(CCN(c5ccc(C(=O)N[C@H]6CC[C@H](Oc7ccc(C#N)c(Cl)c7)CC6)nn5)CC4)C3)c1)=N[C@@H](C)c1nnc(C)n1-2 [I-684],–,–,–,500 to 1500,< 500,> 3000
Cc1sc2c(c1C)C(c1ccc(C3CC(N4CCN(c5ccc(C(=O)N[C@H]6CC[C@H](Oc7ccc(C#N)c(Cl)c7)CC6)nn5)CC4)C3)cc1)=NC1(CC1)c1nnc(C)n1-2 (stereo partly drawn) [I-573],–,–,–,< 500,< 500,< 500
Cc1sc2c(c1C)C(c1ccc(N3CC(CC4CCCN(c5ccc(C(=O)N[C@H]6CC[C@H](Oc7ccc(C#N)c(Cl)c7)CC6)nn5)C4)C3)cc1)=N[C@@H](C)c1nnc(C)n1-2 (stereo partly drawn) [I-576],–,–,–,< 500,< 500,< 500
Cc1sc2c(c1C)C(c1cccc(OCC3CCN(c4ccc(C(=O)N[C@H]5CC[C@H](Oc6ccc(C#N)c(Cl)c6)CC5)nn4)CC3)c1)=N[C@@H](C)c1nnc(C)n1-2 [I-681],–,–,–,< 500,> 3000,> 3000
Cc1sc2c(c1C)C(c1ccc(CC3CC4(CCCN(c5ccc(C(=O)N[C@H]6CC[C@H](Oc7ccc(C#N)c(Cl)c7)CC6)nn5)C4)C3)cn1)=NC(Cc1ncco1)c1nnc(C)n1-2 (stereo partly drawn) [I-769],< 500,> 3000,> 3000,–,–,–
Cc1sc2c(c1C)C(c1ccc(OCC3CCC4(C3)CN(c3ccc(C(=O)N[C@H]5CC[C@H](Oc6ccc(C#N)c(Cl)c6)CC5)nn3)CCO4)cc1)=N[C@@H](C)c1nnc(C)n1-2 (stereo partly drawn) [I-668],< 500,< 500,< 500,–,–,–
Cc1sc2c(c1C)C(c1ccc(N3C4CCC3CC3(CCN(c5ccc(C(=O)N[C@H]6CC[C@H](Oc7ccc(C#N)c(Cl)c7)CC6)nn5)C3)C4)cc1)=N[C@@H](C)c1nnc(C)n1-2 (stereo partly drawn) [I-698],–,< 500,< 500,< 500,–,–
Cc1sc2c(c1C)C(c1ccc(OC3CCC4(CCCN(c5ccc(C(=O)N[C@H]6CC[C@H](Oc7ccc(C#N)c(Cl)c7)CC6)nn5)C4)C3)cc1)=NC1(CC1)c1nnc(C)n1-2 (stereo partly drawn) [I-525],< 500,> 3000,< 500,–,–,–
Cc1sc2c(c1C)C(c1cccc(OC3CCN(c4ccc(C(=O)N[C@H]5CC[C@H](Oc6ccc(C#N)c(Cl)c6)CC5)nn4)CC3)c1)=N[C@@H](C)c1nnc(C)n1-2 [I-680],–,–,–,< 500,< 500,> 3000
Cc1sc2c(c1C)C(c1ccc(COC3CCC4(CCCN(c5ccc(C(=O)N[C@H]6CC[C@H](Oc7ccc(C#N)c(Cl)c7)CC6)nn5)C4)C3)cc1)=N[C@@H](C)c1nnc(C)n1-2 (stereo partly drawn) [I-513],500 to 1500,–,< 500,–,–,< 500
Cc1sc2c(c1C)C(c1ccc(N3CC4(CC(Cc5ccc(C(=O)N[C@H]6CC[C@H](Oc7ccc(C#N)c(Cl)c7)CC6)nn5)C4)C3)cc1)=NC(C(F)(F)F)c1nnc(C)n1-2 (stereo partly drawn) [I-725],< 500,> 3000,< 500,–,–,–
Cc1sc2c(c1C)C(c1ccc(C3CCC4(CC3)CCN(c3ccc(C(=O)N[C@H]5CC[C@H](Oc6ccc(C#N)c(Cl)c6)CC5)nn3)C4)cc1)=N[C@@H](C)c1nnc(C)n1-2 (stereo partly drawn) [I-494],–,–,< 500,< 500,–,< 500
